This note sets out measurements from US20250017905A1, “COMPOSITION FOR INHIBITING HISTAMINE-N-METHYLTRANSFERASE” (SUNTORY HOLDINGS LIMITED, priority 2021, published 2025).

In this assay the target is T1, recombinant human histamine-N-methyltransferase (HNMT) (Homo sapiens, UniProt P50135).
T1 construct: host or cells: Escherichia coli
Briefly: Evaluation of histamine-N-methyltransferase inhibitory activity (Eurofins Panlabs, [3H]N-methylhistamine formation). The class given is biochemical. The method, then:
The study was commissioned to Eurofins Panlabs. The study was performed using recombinant human histamine-N-methyltransferase (HNMT) expressed in Escherichia coli. First, HNMT (0.025 μg/mL) was incubated with L-ergothioneine (L-ergothioneine concentration: 10 μM, 30 μM, 100 μM, 300 μM, or 1000 μM) in a phosphate buffer (pH 7.8) at 37° C. for 15 minutes. Next, 20 μM histamine, 1.4 μM S-(5′-adenosyl)-L-methionine, and 0.014 μM S-adenosyl-L-[methyl-3H]methionine were added to initiate an enzymatic reaction. After incubating at 37° C. for 30 minutes, 2.5 M borate was added to terminate the reaction. Lastly, the enzyme inhibitory activity of L-ergothioneine was evaluated using the amount of [3H]N-methylhistamine formed in the reaction as an index.
The concentration (μM) on the horizontal axis is the L-ergothioneine concentration.

T1 sequence (P50135 whole entry): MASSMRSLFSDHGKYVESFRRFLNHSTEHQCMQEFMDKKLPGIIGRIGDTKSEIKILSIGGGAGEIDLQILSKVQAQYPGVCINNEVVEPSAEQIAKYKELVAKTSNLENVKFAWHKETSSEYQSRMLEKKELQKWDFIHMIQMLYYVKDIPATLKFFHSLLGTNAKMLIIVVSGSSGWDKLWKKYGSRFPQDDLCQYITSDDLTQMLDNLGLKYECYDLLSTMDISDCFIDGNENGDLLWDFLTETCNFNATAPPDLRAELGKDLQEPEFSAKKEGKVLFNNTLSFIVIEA

`C[N+](C)(C)[C@@H](Cc1c[nH]c(=S)[nH]1)C(=O)[O-]` [L-ergothioneine]: the “histamine-N-methyltransferase inhibition (FIG. 1), in words” value (10 μM, 30 μM, 100 μM, 300 μM, or 1000 μM) is “concentration-dependent manner”. For the setting “HNMT 0.025 μg/mL, phosphate buffer pH 7.8, 37° C., 20 μM histamine, 10-1000 μM tested, read-out: L-ergothioneine concentration (IC50) that inhibits 50% of substrate binding of histamine-N-methyltransferase”, the IC50 amounted to 46.2 µM.
